{"source": "patent US20240057591A1", "about": "“ANTIMICROBIAL WET WIPES” (Kimberly-Clark Worldwide, Inc., priority 2021, published 2024)", "key": {"[1]": {"assay": "pH measurements of preservative free wet wipe formulation after addition of CO2 and exposure to 1 atm (FIG. 5)", "format": "physicochemical", "method": "FIG. 5 is an exemplary embodiment depicting a graph of pH measurements of 100 mL of preservative free wet wipe formulation after addition of 8.2 g of CO2, and subsequent exposure to 1 atm (20° C.) in accordance with the present disclosure."}, "[2]": {"tested_on": "Burkholderia cepacia (ATCC 25416)", "assay": "Reduction of bacterial load by adding CO2 in a pressurized vessel (whipped cream dispenser), plate count after 72 hr", "format": "cell-based", "conditions": "for Recovered Bacteria, Average CFU/mL, With CO2: 72 hr, 25° C., n = 3", "method": "Burkholderia cepacia (ATCC 25416) was grown overnight in 40 mL trypticase soy broth in 250 mL bottle shaken at 100 RPM at 30° C. […] 100 mL of either solution were placed in a whipped cream dispenser (670 mL total volume container), and then different amounts of carbon dioxide (CO2) were injected into the container.\n100 mL of each solution were then placed in a 150 mL sterile plastic bottle (untreated control). Both samples were placed on a wrist action shaker for 2 hr at 100 rpm at room temperature (25° C.), and then placed on an orbital shaker for 70 hr at 100 rpm at room temperature (25° C.). The total time each sample was at room temperature (25° C.) was 72 hr. After 72 hr, each sample was plated on trypticase soy agar to enumerate bacterial growth after contact period."}, "[3]": {"tested_on": "Burkholderia cepacia ATCC 25416", "assay": "Reduction of bacterial load by continuous addition of CO2, plate count after contact time", "format": "cell-based", "conditions": "n = 2", "method": "Each microbe was grown in specified growth conditions (Table 7) using 40 mL of broth media in a sterile 250 mL bottle shaken at 100 RPM. Each microbe was subcultured from broth culture to an agar plate and incubated in specified growth conditions (Table 7). […] 20 mL of reverse osmosis water solution with bacteria was dispensed to a 25 mL hydrothermal synthesis autoclave reactor vessel (25 mL total volume vessel) attached to a continuous CO2 delivery system. The vessels were left connected to the CO2 delivery system at specific contact times at room temperature (25-27° C.). 20 mL of reverse osmosis water with bacteria and filter sterilized reverse osmosis water (no bacteria) were placed in a 150 mL sterile plastic bottle (untreated controls). The untreated controls were left for the same contact time at room temperature (25-27° C.) as CO2 treated vessels. Each microorganism was plated on specified agar media (Table 7) to enumerate bacteria after contact period. Tables 8-10 show the bacterial load reduction achieved after continuous addition of pressurized gas comprising CO2 to contaminated reverse osmosis water or a contaminated solution of reverse osmosis water and Triton X-100."}, "[4]": {"tested_on": "Pseudomonas aeruginosa ATCC 9027", "assay": "Reduction of microorganism load by continuous addition of CO2, plate count after contact time", "format": "cell-based", "conditions": "300 psi CO2 continuously, reverse osmosis water, n = 2", "method": "(§1) Each microbe was grown in specified growth conditions (Table 7) using 40 mL of broth media in a sterile 250 mL bottle shaken at 100 RPM. Each microbe was subcultured from broth culture to an agar plate and incubated in specified growth conditions (Table 7). 100 μL of bacterial or fungal suspension matching the turbidity of a 0.5 or 1 MacFarland Standard were added to 100 mL of filter-sterilized reverse osmosis water (final concentration approximately 1×10^6 or 5×10^1 CFU/mL). 20 mL of reverse osmosis water solution with bacteria was dispensed to a 25 mL hydrothermal synthesis autoclave reactor vessel (25 mL total volume vessel) attached to a continuous CO2 delivery system. The vessels were left connected to the CO2 delivery system at specific contact times at room temperature (25-27° C.). 20 mL of reverse osmosis water with bacteria and filter sterilized reverse osmosis water (no bacteria) were placed in a 150 mL sterile plastic bottle (untreated controls). The untreated controls were left for the same contact time at room temperature (25-27° C.) as CO2 treated vessels. Each microorganism was plated on specified agar media (Table 7) to enumerate bacteria after contact period. Tables 8-10 show the bacterial load reduction achieved after continuous addition of pressurized gas comprising CO2 to contaminated reverse osmosis water or a contaminated solution of reverse osmosis water and Triton X-100."}, "[5]": {"tested_on": "Escherichia coli ATCC 8739", "assay": "Reduction of microorganism load by continuous addition of CO2, plate count after contact time", "format": "cell-based", "conditions": "300 psi CO2 continuously, reverse osmosis water, n = 2", "method": "as §1"}, "[6]": {"tested_on": "Candida albicans ATCC 10231", "assay": "Reduction of microorganism load by continuous addition of CO2, plate count after contact time", "format": "cell-based", "conditions": "300 psi CO2 continuously, reverse osmosis water, n = 2", "method": "as §1"}, "[7]": {"tested_on": "Staphylococcus aureus ATCC 6538", "assay": "Reduction of microorganism load by continuous addition of CO2, plate count after contact time", "format": "cell-based", "conditions": "300 psi CO2 continuously, reverse osmosis water, n = 2", "method": "as §1"}}, "note": "Marks after values point to notes of the source that are not given here.", "data": [{"smiles": "O=C=O", "note": "[CO2, carbon dioxide]", "values": [{"measurement": "Reduction of pH of wet wipe formulation", "setting": "[1]; 100 mL preservative free wet wipe formulation after addition of 8.2 g of CO2 (FIG. 5)", "result": "approximately 0.20 pH units"}, {"measurement": "Dissipation of solubilized CO2 from wet wipe formulation", "setting": "[1]; after exposure to atmospheric conditions (1 atm, 20° C.; FIG. 5)", "result": "quickly dissipated"}, {"measurement": "Recovered Bacteria, Average CFU/mL, With CO2", "setting": "[2]; 8.2 g of CO2 to 100 mL preservative-free wet wipe formulation, approximately 1 × 10^6 CFU/mL", "result": "<10", "unit": "CFU/mL"}, {"measurement": "Recovered Bacteria, Average CFU/mL, With CO2", "setting": "[2]; 8.2 g of CO2 to 100 mL reverse osmosis water, approximately 1 × 10^6 CFU/mL", "result": "1.1 × 10^3 CFU/mL"}, {"measurement": "Recovered Bacteria, Average CFU/mL, With CO2", "setting": "[2]; 8.2 g of CO2 to 100 mL reverse osmosis water, approximately 5 × 10^1 CFU/mL", "result": "<10", "unit": "CFU/mL"}, {"measurement": "Recovered Bacteria, Average CFU/mL, With CO2", "setting": "[2]; 16.0 g of CO2 to 100 mL reverse osmosis water, approximately 1 × 10^5 CFU/mL", "result": "<10", "unit": "CFU/mL"}, {"measurement": "Recovered Bacteria, Average CFU/mL, With CO2", "setting": "[2]; 23.7 g of CO2 to 100 mL reverse osmosis water, approximately 1 × 10^5 CFU/mL", "result": "<10", "unit": "CFU/mL"}, {"measurement": "Microbial growth compared to no added CO2", "setting": "[2]; pressurized gas comprising carbon dioxide added to contaminated preservative-free wet wipe formulation", "result": "greatly reduced microbial growth"}, {"measurement": "Microbial growth compared to no added CO2", "setting": "[2]; pressurized gas comprising carbon dioxide added to contaminated water", "result": "greatly reduced microbial growth"}, {"measurement": "Average Recovered CFU/mL, With CO2", "setting": "[3]; 100 psi CO2 continuously, reverse osmosis water and 0.2% (v/v) Triton X-100, approximately 1.0 × 10^4 inoculum, 15 minutes", "result": "2.1 × 10^3 CFU/mL"}, {"measurement": "Average Recovered CFU/mL, With CO2", "setting": "[3]; 100 psi CO2 continuously, reverse osmosis water and 0.2% (v/v) Triton X-100, approximately 1.0 × 10^4 inoculum, 30 minutes", "result": "1.2 × 10^3 CFU/mL"}, {"measurement": "Average Recovered CFU/mL, With CO2", "setting": "[3]; 100 psi CO2 continuously, reverse osmosis water and 0.2% (v/v) Triton X-100, approximately 1.0 × 10^4 inoculum, 60 minutes", "result": "6.3 × 10^2 CFU/mL"}, {"measurement": "Average Recovered CFU/mL (Standard Deviation), With CO2", "setting": "[3]; 300 psi CO2 continuously, 20 mL reverse osmosis water, 0.5 hours", "result": "5.0 × 10^5 (1.0 × 10^5) CFU/mL"}, {"measurement": "Average Recovered CFU/mL (Standard Deviation), With CO2", "setting": "[3]; 300 psi CO2 continuously, 20 mL reverse osmosis water, 1 hour", "result": "4.5 × 10^5 (2.5 × 10^5) CFU/mL"}, {"measurement": "Average Recovered CFU/mL (Standard Deviation), With CO2", "setting": "[3]; 300 psi CO2 continuously, 20 mL reverse osmosis water, 1.5 hours", "result": "5.0 × 10^5 (2.0 × 10^5) CFU/mL"}, {"measurement": "Average Recovered CFU/mL (Standard Deviation), With CO2", "setting": "[3]; 300 psi CO2 continuously, 20 mL reverse osmosis water, 2 hours", "result": "3.1 × 10^4 (7.0 × 10^3) CFU/mL"}, {"measurement": "Average Recovered CFU/mL (Standard Deviation), With CO2", "setting": "[3]; 300 psi CO2 continuously, 20 mL reverse osmosis water, 2.5 hours", "result": "8.0 × 10^3 (2.0 × 10^3) CFU/mL"}, {"measurement": "Average Recovered CFU/mL (Standard Deviation), With CO2", "setting": "[3]; 300 psi CO2 continuously, 20 mL reverse osmosis water, 3 hours", "result": "<1 (n/a) CFU/mL"}, {"measurement": "Average Recovered CFU/mL (Standard Deviation), With CO2", "setting": "[3]; 300 psi CO2 continuously, 20 mL reverse osmosis water, 6 hours", "result": "<1 (n/a) CFU/mL"}, {"measurement": "Average Recovered CFU/mL (Standard Deviation), With CO2", "setting": "[3]; 300 psi CO2 continuously, 20 mL reverse osmosis water, 24 hours", "result": "<1 (n/a) CFU/mL"}, {"measurement": "Average Recovered CFU/mL (Standard Deviation), With CO2", "setting": "[3]; Table 9: 100 psi CO2 (approx. 0.231 mol/L), reverse osmosis water, 2 hours", "result": "2.3 × 10^4 (1.0 × CFU/mL"}, {"measurement": "Average Recovered CFU/mL (Standard Deviation), With CO2", "setting": "[3]; Table 9: 100 psi CO2 (approx. 0.231 mol/L), reverse osmosis water, 4 hours", "result": "1.2 × 10^4 (4.0 × CFU/mL"}, {"measurement": "Average Recovered CFU/mL (Standard Deviation), With CO2", "setting": "[3]; Table 9: 100 psi CO2 (approx. 0.231 mol/L), reverse osmosis water, 6 hours", "result": "1.2 × 10^4 (3.5 × CFU/mL"}, {"measurement": "Average Recovered CFU/mL (Standard Deviation), With CO2", "setting": "[3]; Table 9: 200 psi CO2 (approx. 0.463 mol/L), reverse osmosis water, 2 hours", "result": "1.2 × 10^3 (1.5 × CFU/mL"}, {"measurement": "Average Recovered CFU/mL (Standard Deviation), With CO2", "setting": "[3]; Table 9: 200 psi CO2 (approx. 0.463 mol/L), reverse osmosis water, 4 hours", "result": "1.0 × 10^2 (1.0 × CFU/mL"}, {"measurement": "Average Recovered CFU/mL (Standard Deviation), With CO2", "setting": "[3]; Table 9: 200 psi CO2 (approx. 0.463 mol/L), reverse osmosis water, 6 hours", "result": "1.4 × 10^1 (<10) CFU/mL"}, {"measurement": "Average Recovered CFU/mL (Standard Deviation), With CO2", "setting": "[3]; Table 9: 300 psi CO2 (approx. 0.694 mol/L), reverse osmosis water, 2 hours", "result": "9.0 × 10^2 (1.0 × CFU/mL"}, {"measurement": "Average Recovered CFU/mL (Standard Deviation), With CO2", "setting": "[3]; Table 9: 300 psi CO2 (approx. 0.694 mol/L), reverse osmosis water, 4 hours", "result": "5.0 × 10^1 (5.0 × CFU/mL"}, {"measurement": "Average Recovered CFU/mL (Standard Deviation), With CO2", "setting": "[3]; Table 9: 300 psi CO2 (approx. 0.694 mol/L), reverse osmosis water, 6 hours", "result": "<10 (n/a) CFU/mL"}, {"measurement": "Average Recovered CFU/mL, With CO2", "setting": "[3]; Table 10: 300 psi CO2 continuously, reverse osmosis water, 2 Hours", "result": "1.3 × 10^3 CFU/mL"}, {"measurement": "Average Recovered CFU/mL, With CO2", "setting": "[3]; Table 10: 300 psi CO2 continuously, reverse osmosis water, 4 Hours", "result": "2.5 × 10^1 CFU/mL"}, {"measurement": "Average Recovered CFU/mL, With CO2", "setting": "[3]; Table 10: 300 psi CO2 continuously, reverse osmosis water, 6 Hours", "result": "<10", "unit": "CFU/mL"}, {"measurement": "Average Recovered CFU/mL, With CO2", "setting": "[4]; 2 Hours", "result": "3.5 × 10^2 CFU/mL"}, {"measurement": "Average Recovered CFU/mL, With CO2", "setting": "[4]; 4 Hours", "result": "<10", "unit": "CFU/mL"}, {"measurement": "Average Recovered CFU/mL, With CO2", "setting": "[4]; 6 Hours", "result": "<10", "unit": "CFU/mL"}, {"measurement": "Average Recovered CFU/mL, With CO2", "setting": "[5]; 2 Hours", "result": "1.0 × 10^3 CFU/mL"}, {"measurement": "Average Recovered CFU/mL, With CO2", "setting": "[5]; 4 Hours", "result": "2.5 × 10^2 CFU/mL"}, {"measurement": "Average Recovered CFU/mL, With CO2", "setting": "[5]; 6 Hours", "result": "<10", "unit": "CFU/mL"}, {"measurement": "Average Recovered CFU/mL, With CO2", "setting": "[6]; 2 Hours", "result": "5.3 × 10^2 CFU/mL"}, {"measurement": "Average Recovered CFU/mL, With CO2", "setting": "[6]; 4 Hours", "result": "1.0 × 10^2 CFU/mL"}, {"measurement": "Average Recovered CFU/mL, With CO2", "setting": "[6]; 6 Hours", "result": "<10", "unit": "CFU/mL"}, {"measurement": "Average Recovered CFU/mL, With CO2", "setting": "[7]; 2 Hours", "result": "6.0 × 10^2 CFU/mL"}, {"measurement": "Average Recovered CFU/mL, With CO2", "setting": "[7]; 4 Hours", "result": "1.3 × 10^2 CFU/mL"}, {"measurement": "Average Recovered CFU/mL, With CO2", "setting": "[7]; 6 Hours", "result": "<10", "unit": "CFU/mL"}]}]}
